Assay results reported in ChEMBL document CHEMBL1133194, “Synthesis and bioactivities of novel piperidylpyrimidine derivatives: inhibitors of tumor necrosis factor-alpha production” (Bioorg Med Chem Lett, 2000).

Organism: Mus musculus
Assay: Ability to inhibit tumor necrosis factor-alpha (TNF-alpha) production in mouse macrophages stimulated with LPS
Assay type: functional

| SMILES | IC50 |
| --- | --- |
| Nc1nc(N2CCCCC2)c2ccccc2n1 | > 100000 nM |
| O=C(c1ccccc1)N1CCC(c2ncnc3ccccc23)CC1 | 1400 nM |
| Nc1nc(C2CCN(C(=O)Cc3ccccc3)CC2)c2ccccc2n1 | 2000 nM |
| CN1CCC(c2nc(N)nc3ccccc23)CC1 | > 100000 nM |
| COc1ccc(Cc2cc(C3CCN(C(=O)c4ccc(Cl)c(Cl)c4)CC3)nc(N)n2)cc1 | 700 nM |
| Cc1cc(C2CCN(C(=O)c3ccccc3)CC2)nc(N)n1 | 9000 nM |
| COc1ccc(Cc2cc(C3CCN(C(=O)Cc4ccc(Cl)c(Cl)c4)CC3)nc(N)n2)cc1 | 2100 nM |
| COc1ccc(Cc2cc(C3CCN(C(=O)c4cccc(OC)c4)CC3)nc(N)n2)cc1 | 1200 nM |
| COc1ccc(Cc2cc(C3CCN(C(=O)Cc4ccc(Cl)cc4)CC3)nc(N)n2)cc1 | 2400 nM |
| Nc1nc(C2CCN(C(=O)CCc3ccccc3)CC2)c2ccccc2n1 | 6300 nM |
| Nc1nc(C2CCN(C3CCCCC3)CC2)c2ccccc2n1 | 53000 nM |
| Nc1nc(C2CCN(Cc3ccccc3)CC2)c2ccccc2n1 | 16000 nM |
| Nc1nc(Nc2ccccc2)c2ccccc2n1 | > 100000 nM |
| CCCCCCCC(=O)N1CCC(c2cc(Cc3ccc(OC)cc3)nc(N)n2)CC1 | 1900 nM |
| COc1ccc(Cc2cc(C3CCN(C(=O)c4cc(OC)cc(OC)c4)CC3)nc(N)n2)cc1 | 1000 nM |
| Nc1nc(C2CCNCC2)c2ccccc2n1 | 51000 nM |
| COc1ccc(Cc2cc(C3CCN(C(=O)Cc4ccc(OC)c(OC)c4)CC3)nc(N)n2)cc1 | 1200 nM |
| COc1ccc(Cc2cc(C3CCN(C(=O)c4ccc5c(c4)OCO5)CC3)nc(N)n2)cc1 | 600 nM |
| O=C(c1ccccc1)N1CCC(c2nc(Cl)nc3ccccc23)CC1 | 1400 nM |
| COc1ccc(CC(=O)N2CCC(c3cc(Cc4ccc(OC)cc4)nc(N)n3)CC2)cc1 | 1700 nM |
| CC(=O)N1CCC(c2nc(N)nc3ccccc23)CC1 | 3600 nM |
| Nc1nc(C2CCN(CCc3ccccc3)CC2)c2ccccc2n1 | > 100000 nM |
| O=C(c1ccccc1)N1CCC(c2nc(O)nc3ccccc23)CC1 | 20000 nM |

| SMILES | IC50 |
| --- | --- |
| COc1ccc(Cc2cc(C3CCN(C(=O)c4cccc(OC)c4OC)CC3)nc(N)n2)cc1 | 900 nM |
| COc1ccc(Cc2cc(C3CCN(C(=O)C(C)(C)C)CC3)nc(N)n2)cc1 | 5600 nM |
| COc1ccc(Cc2cc(C3CCN(C(=O)c4ccc([N+](=O)[O-])cc4)CC3)nc(N)n2)cc1 | 700 nM |
| COc1ccc(Cc2cc(C3CCN(C(=O)c4ccccc4OC)CC3)nc(N)n2)cc1 | 3600 nM |
| Nc1nc(C2CCN(C(=O)c3ccccc3)CC2)c2ccccc2n1 | 1400 nM |
| COc1ccc(Cc2cc(C3CCN(C(=O)c4ccccc4)CC3)nc(N)n2)cc1 | 1400 nM |
| COc1ccc(Cc2cc(C3CCN(C(=O)Cc4ccccc4)CC3)nc(N)n2)cc1 | 2100 nM |
| COc1ccc(Cc2cc(C3CCN(C(=O)Cc4ccc5c(c4)OCO5)CC3)nc(N)n2)cc1 | 1800 nM |
| Nc1nc(C2CCN(C(=O)c3ccc4c(c3)OCO4)CC2)c2ccccc2n1 | 4500 nM |
| CCCCC(=O)N1CCC(c2nc(N)nc3ccccc23)CC1 | 3000 nM |
| CCC(=O)N1CCC(c2cc(Cc3ccc(OC)cc3)nc(N)n2)CC1 | 4900 nM |
| COc1ccc(-c2c(C)nc(N)nc2C2CCN(C(=O)c3ccccc3)CC2)cc1 | 9700 nM |
| CCCC(=O)N1CCC(c2cc(Cc3ccc(OC)cc3)nc(N)n2)CC1 | 7200 nM |
| COc1ccc(Cc2cc(C3CCN(C(C)=O)CC3)nc(N)n2)cc1 | 6100 nM |
| CN1CCN(c2nc(N)nc3ccccc23)CC1 | > 100000 nM |
| COc1ccc(Cc2cc(C3CCN(C(=O)c4ccc(OC)c(OC)c4)CC3)nc(N)n2)cc1 | 900 nM |
| COc1ccc(Cc2cc(C3CCN(C(=O)c4ccccc4[N+](=O)[O-])CC3)nc(N)n2)cc1 | 1700 nM |
| COc1ccc(Cc2cc(C3CCN(C(=O)c4ccc(OC)cc4)CC3)nc(N)n2)cc1 | 500 nM |
| COc1ccc(Cc2cc(C3CCN(C(=O)c4cccc([N+](=O)[O-])c4)CC3)nc(N)n2)cc1 | 800 nM |
| COc1ccc(Cc2cc(C3CCN(C(=O)c4ccc(Cl)cc4)CC3)nc(N)n2)cc1 | 600 nM |
| Nc1nc(-c2ccccc2)cc(C2CCN(C(=O)c3ccccc3)CC2)n1 | 5100 nM |
| Nc1nc(C2CCN(C(=O)C3CCCCC3)CC2)c2ccccc2n1 | 2500 nM |
| CCCCCC(=O)N1CCC(c2cc(Cc3ccc(OC)cc3)nc(N)n2)CC1 | 1500 nM |
